Test results published in US8013156B2 (Exelixis, Inc., priority 2003, dated 2011).
pIC50: −log10 of the molar value.

Biological target: Tie-2 (Homo sapiens, UniProt Q02763)
Assay: Tie-2 tyrosine kinase activity assay (luciferase/luciferin ATP consumption with pEY substrate, or 33P-ATP incorporation)
Format: biochemical
Settings: human enzyme Tie-2
In short: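 Values are IC50 categories (A <50 nM to D ≥10,000 nM), with Ki obtainable by fitting rates to a tight-binding model. Assay formats: 33P-ATP phosphate transfer to adsorbed generic substrate counted by scintillation, or luciferase-detected ATP depletion using pEY.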

Sequence of Tie-2 (Q02763 23-1124): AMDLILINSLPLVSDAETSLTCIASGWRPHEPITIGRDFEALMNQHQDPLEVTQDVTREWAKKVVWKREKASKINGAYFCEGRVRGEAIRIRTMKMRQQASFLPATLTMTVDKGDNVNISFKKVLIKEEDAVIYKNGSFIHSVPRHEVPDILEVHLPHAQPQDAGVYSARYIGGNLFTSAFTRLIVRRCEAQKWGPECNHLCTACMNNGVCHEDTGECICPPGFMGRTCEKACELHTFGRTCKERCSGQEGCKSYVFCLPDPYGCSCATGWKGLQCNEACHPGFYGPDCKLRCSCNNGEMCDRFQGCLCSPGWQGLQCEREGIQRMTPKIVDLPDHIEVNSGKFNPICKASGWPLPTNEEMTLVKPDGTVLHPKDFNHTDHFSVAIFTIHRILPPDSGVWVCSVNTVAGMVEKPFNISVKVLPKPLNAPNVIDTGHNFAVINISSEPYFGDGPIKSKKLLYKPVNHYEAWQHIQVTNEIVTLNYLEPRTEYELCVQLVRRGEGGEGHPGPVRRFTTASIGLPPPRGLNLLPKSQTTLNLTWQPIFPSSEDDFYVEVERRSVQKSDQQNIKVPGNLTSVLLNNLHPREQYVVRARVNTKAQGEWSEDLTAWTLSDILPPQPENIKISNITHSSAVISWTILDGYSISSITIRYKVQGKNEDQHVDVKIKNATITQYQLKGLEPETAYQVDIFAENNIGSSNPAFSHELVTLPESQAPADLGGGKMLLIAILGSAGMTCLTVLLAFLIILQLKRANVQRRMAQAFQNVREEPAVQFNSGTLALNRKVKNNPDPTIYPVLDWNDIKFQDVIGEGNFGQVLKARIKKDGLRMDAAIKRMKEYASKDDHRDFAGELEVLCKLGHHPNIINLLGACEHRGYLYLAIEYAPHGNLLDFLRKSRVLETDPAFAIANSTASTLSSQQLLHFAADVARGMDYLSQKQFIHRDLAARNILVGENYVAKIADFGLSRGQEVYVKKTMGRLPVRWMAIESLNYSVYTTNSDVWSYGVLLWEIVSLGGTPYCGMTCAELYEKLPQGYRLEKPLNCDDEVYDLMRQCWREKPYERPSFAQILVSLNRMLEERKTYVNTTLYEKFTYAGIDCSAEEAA

Q: `O=C(Nc1cc(C(F)(F)F)cc(C(F)(F)F)c1)N1CCN(c2nsnc2OCc2ccncn2)CC1` [Example 138, N-[3,5-bis(trifluoromethyl)phenyl]-4-{4-[(pyrimidin-4-ylmethyl)oxy]-1,2,5-thiadiazol-3-yl}piperazine-1-carboxamide] was tested. Which pIC50 did it give?
A: 6.00 to 7.30

Q: With `O=C(O)c1cc(COc2nsnc2N2CCN(C(=O)Nc3cc(C(F)(F)F)cc(C(F)(F)F)c3)CC2)ccn1` [Example 139, 4-[({4-[4-({[3,5-bis(trifluoromethyl)phenyl]amino}carbonyl)piperazin-1-yl]-1,2,5-thiadiazol-3-yl}oxy)methyl]pyridine-2-carboxylic acid] as the compound, how does the pIC50 read?
A: ≤ 5.00

Q: With `O=C(Nc1cc(COc2nsnc2N2CCN(C(=O)Nc3cc(C(F)(F)F)cc(C(F)(F)F)c3)CC2)ccn1)OCCN1CCCC1` [Example 140, 2-pyrrolidin-1-ylethyl {4-[({4-[4-({[3,5-bis(trifluoromethyl)phenyl]amino}carbonyl)piperazin-1-yl]-1,2,5-thiadiazol-3-yl}oxy)methyl]pyridin-2-yl}carbamate] as the compound, how does the pIC50 read?
A: > 7.30

Q: `O=C(Nc1cc(COc2nsnc2N2CCN(C(=O)Nc3cc(C(F)(F)F)cc(C(F)(F)F)c3)CC2)ccn1)OCCN1CCOCC1` [Example 141, 2-morpholin-4-ylethyl {4-[({4-[4-({[3,5-bis(trifluoromethyl)phenyl]amino}carbonyl)piperazin-1-yl]-1,2,5-thiadiazol-3-yl}oxy)methyl]pyridin-2-yl}carbamate] was tested. Which pIC50 did it give?
A: > 7.30

Q: How did the pIC50 turn out when `Nc1nccc(COc2cccnc2N2CCN(C(=O)Nc3cc(C(F)(F)F)cc(C(F)(F)F)c3)CC2)n1` [Example 142, 4-(3-{[(2-aminopyrimidin-4-yl)methyl]oxy}pyridin-2-yl)-N-[3,5-bis(trifluoromethyl)phenyl]piperazine-1-carboxamide] was run?
A: > 7.30

Q: How did the pIC50 turn out when `CN1CCCC(C(=O)Nc2cc(COc3nsnc3N3CCN(C(=O)Nc4cc(C(F)(F)F)cc(C(F)(F)F)c4)CC3)ccn2)C1` (stereo not shown) [Example 143, N-[3,5-bis(trifluoromethyl)phenyl]-4-(4-{[(2-{[(1-methylpiperidin-3-yl)carbonyl]amino}pyridin-4-yl)methyl]oxy}-1,2,5-thiadiazol-3-yl)piperazine-1-carboxamide] was run?
A: > 7.30

Q: `CCc1cccc(NC(=O)N2CCN(c3ncccc3OCc3ccnc(N)n3)CC2)c1` [Example 144, 4-(3-{[(2-aminopyrimidin-4-yl)methyl]oxy}pyridin-2-yl)-N-(3-ethylphenyl)piperazine-1-carboxamide] was tested. Which pIC50 did it give?
A: > 7.30

Q: How did the pIC50 turn out when `CN1CCN(CCOC(=O)Nc2cc(COc3nsnc3N3CCN(C(=O)Nc4cc(C(F)(F)F)cc(C(F)(F)F)c4)CC3)ccn2)CC1` [Example 145, 2-(4-methylpiperazin-1-yl)ethyl {4-[({4-[4-({[3,5-bis(trifluoromethyl)phenyl]amino}carbonyl)piperazin-1-yl]-1,2,5-thiadiazol-3-yl}oxy)methyl]pyridin-2-yl}carbamate] was run?
A: > 7.30

Q: How did the pIC50 turn out when `CCN1CCC(C(=O)Nc2cc(COc3nsnc3N3CCN(C(=O)Nc4cc(C(F)(F)F)cc(C(F)(F)F)c4)CC3)ccn2)CC1` [Example 146, N-[3,5-bis(trifluoromethyl)phenyl]-4-(4-{[(2-{[(1-ethylpiperidin-4-yl)carbonyl]amino}pyridin-4-yl)methyl]oxy}-1,2,5-thiadiazol-3-yl)piperazine-1-carboxamide] was run?
A: > 7.30

Q: With `Nc1cc(COc2nsnc2N2CCN(C(=O)Nc3cccc(SC(F)(F)F)c3)CC2)ccn1` [Example 147, 4-(4-{[(2-aminopyridin-4-yl)methyl]oxy}-1,2,5-thiadiazol-3-yl)-N-{3-[(trifluoromethyl)thio]phenyl}piperazine-1-carboxamide] as the compound, how does the pIC50 read?
A: > 7.30

Q: How did the pIC50 turn out when `Nc1cc(COc2nsnc2N2CCN(S(=O)(=O)c3cc(C(F)(F)F)cc(C(F)(F)F)c3)CC2)ccn1` [Example 148, 4-({[4-(4-{[3,5-bis(trifluoromethyl)phenyl]sulfonyl}piperazin-1-yl)-1,2,5-thiadiazol-3-yl]oxy}methyl)pyridin-2-amine] was run?
A: ≤ 5.00

Q: How did the pIC50 turn out when `Nc1cc(COc2nsnc2N2CCN(C(=O)Nc3cccc4ccccc34)CC2)ccn1` [Example 149, 4-(4-{[(2-aminopyridin-4-yl)methyl]oxy}-1,2,5-thiadiazol-3-yl)-N-naphthalen-1-ylpiperazine-1-carboxamide] was run?
A: ≤ 5.00

Q: `CN(C)CC(=O)Nc1cc(COc2nsnc2N2CCN(C(=O)Nc3cc(C(F)(F)F)cc(C(F)(F)F)c3)CC2)ccn1` [Example 150, N-[3,5-bis(trifluoromethyl)phenyl]-4-{4-[({2-[(N,N-dimethylglycyl)amino]pyridin-4-yl}methyl)oxy]-1,2,5-thiadiazol-3-yl}piperazine-1-carboxamide] was tested. Which pIC50 did it give?
A: > 7.30

Q: How did the pIC50 turn out when `O=C(CN1CCOCC1)Nc1cc(COc2nsnc2N2CCN(C(=O)Nc3cc(C(F)(F)F)cc(C(F)(F)F)c3)CC2)ccn1` [Example 151, N-[3,5-bis(trifluoromethyl)phenyl]-4-{4-[({2-[(morpholin-4-ylacetyl)amino]pyridin-4-yl}methyl)oxy]-1,2,5-thiadiazol-3-yl}piperazine-1-carboxamide] was run?
A: > 7.30

Q: `O=C(CN1CCCCC1)Nc1cc(COc2nsnc2N2CCN(C(=O)Nc3cc(C(F)(F)F)cc(C(F)(F)F)c3)CC2)ccn1` [Example 152, N-[3,5-bis(trifluoromethyl)phenyl]-4-{4-[({2-[(piperidin-1-ylacetyl)amino]pyridin-4-yl}methyl)oxy]-1,2,5-thiadiazol-3-yl}piperazine-1-carboxamide] was tested. Which pIC50 did it give?
A: 6.00 to 7.30

Q: `CCOC(=O)Nc1cc(COc2nsnc2N2CCN(C(=O)Nc3cc(C(F)(F)F)cc(C(F)(F)F)c3)CC2)ccn1` [Example 153, ethyl {4-[({4-[4-({[3,5-bis(trifluoromethyl)phenyl]amino}carbonyl)piperazin-1-yl]-1,2,5-thiadiazol-3-yl}oxy)methyl]pyridin-2-yl}carbamate] was tested. Which pIC50 did it give?
A: > 7.30

Q: `O=C(CN1CCCC1)Nc1cc(COc2nsnc2N2CCN(C(=O)Nc3cc(C(F)(F)F)cc(C(F)(F)F)c3)CC2)ccn1` [Example 154, N-[3,5-bis(trifluoromethyl)phenyl]-4-{4-[({2-[(pyrrolidin-1-ylacetyl)amino]pyridin-4-yl}methyl)oxy]-1,2,5-thiadiazol-3-yl}piperazine-1-carboxamide] was tested. Which pIC50 did it give?
A: > 7.30

Q: How did the pIC50 turn out when `CN1CCN(CC(=O)Nc2cc(COc3nsnc3N3CCN(C(=O)Nc4cc(C(F)(F)F)cc(C(F)(F)F)c4)CC3)ccn2)CC1` [Example 155, N-[3,5-bis(trifluoromethyl)phenyl]-4-(4-{[(2-{[(4-methylpiperazin-1-yl)acetyl]amino}pyridin-4-yl)methyl]oxy}-1,2,5-thiadiazol-3-yl)piperazine-1-carboxamide] was run?
A: > 7.30

Q: `CCN(CC)CC(=O)Nc1cc(COc2nsnc2N2CCN(C(=O)Nc3cc(C(F)(F)F)cc(C(F)(F)F)c3)CC2)ccn1` [Example 156, N-[3,5-bis(trifluoromethyl)phenyl]-4-{4-[({2-[(N,N-diethylglycyl)amino]pyridin-4-yl}methyl)oxy]-1,2,5-thiadiazol-3-yl}piperazine-1-carboxamide] was tested. Which pIC50 did it give?
A: 6.00 to 7.30

Q: With `CCN1CCC(OC(=O)Nc2cc(COc3nsnc3N3CCN(C(=O)Nc4cc(C(F)(F)F)cc(C(F)(F)F)c4)CC3)ccn2)CC1` [Example 157, 1-ethylpiperidin-4-yl {4-[({4-[4-({[3,5-bis(trifluoromethyl)phenyl]amino}carbonyl)piperazin-1-yl]-1,2,5-thiadiazol-3-yl}oxy)methyl]pyridin-2-yl}carbamate] as the compound, how does the pIC50 read?
A: > 7.30

Q: With `CCc1cccc(NC(=O)N2CCN(c3nsnc3OCc3ccnc(N)n3)CC2)c1` [Example 158, 4-(4-{[(2-aminopyrimidin-4-yl)methyl]oxy}-1,2,5-thiadiazol-3-yl)-N-(3-ethylphenyl)piperazine-1-carboxamide] as the compound, how does the pIC50 read?
A: 6.00 to 7.30

Q: With `O=C(Nc1cc(C(F)(F)F)cc(C(F)(F)F)c1)N1CCN(c2nsnc2OCc2ccnc(N3CCOC3=O)c2)CC1` [Example 159, N-[3,5-bis(trifluoromethyl)phenyl]-4-[4-({[2-(2-oxo-1,3-oxazolidin-3-yl)pyridin-4-yl]methyl}oxy)-1,2,5-thiadiazol-3-yl]piperazine-1-carboxamide] as the compound, how does the pIC50 read?
A: ≤ 5.00

Q: With `CCN(CC)CCOC(=O)Nc1cc(COc2nsnc2N2CCN(C(=O)Nc3cc(C(F)(F)F)cc(C(F)(F)F)c3)CC2)ccn1` [Example 160, 2-(diethylamino)ethyl {4-[({4-[4-({[3,5-bis(trifluoromethyl)phenyl]amino}carbonyl)piperazin-1-yl]-1,2,5-thiadiazol-3-yl}oxy)methyl]pyridin-2-yl}carbamate] as the compound, how does the pIC50 read?
A: > 7.30

Q: With `CCc1cccc(NC(=O)N2CCN(c3ncccc3OCc3ccnc(NC(=O)OC)c3)CC2)c1` [Example 161, methyl [4-({[2-(4-{[(3-ethylphenyl)amino]carbonyl}piperazin-1-yl)pyridin-3-yl]oxy}methyl)pyridin-2-yl]carbamate] as the compound, how does the pIC50 read?
A: > 7.30

Q: With `O=C(Nc1nccc(COc2nsnc2N2CCN(C(=O)Nc3cc(C(F)(F)F)cc(C(F)(F)F)c3)CC2)n1)OCCN1CCCC1` [Example 162, 2-pyrrolidin-1-ylethyl {4-[({4-[4-({[3,5-bis(trifluoromethyl)phenyl]amino}carbonyl)piperazin-1-yl]-1,2,5-thiadiazol-3-yl}oxy)methyl]pyrimidin-2-yl}carbamate] as the compound, how does the pIC50 read?
A: 6.00 to 7.30

Q: With `O=C(Nc1nccc(COc2nsnc2N2CCN(C(=O)Nc3cc(C(F)(F)F)cc(C(F)(F)F)c3)CC2)n1)OCCN1CCCCC1` [Example 163, 2-piperidin-1-ylethyl {4-[({4-[4-({[3,5-bis(trifluoromethyl)phenyl]amino}carbonyl)piperazin-1-yl]-1,2,5-thiadiazol-3-yl}oxy)methyl]pyrimidin-2-yl}carbamate] as the compound, how does the pIC50 read?
A: 6.00 to 7.30

Q: With `COC(=O)Nc1cc(COc2cccnc2N2CCN(C(=O)Nc3cccc(Br)c3)CC2)ccn1` [Example 164, methyl [4-({[2-(4-{[(3-bromophenyl)amino]carbonyl}piperazin-1-yl)pyridin-3-yl]oxy}methyl)pyridin-2-yl]carbamate] as the compound, how does the pIC50 read?
A: > 7.30

Q: How did the pIC50 turn out when `COC(=O)Nc1cc(COc2cccnc2N2CCN(C(=O)Nc3cccc(OC)c3)CC2)ccn1` [Example 165, methyl {4-[({2-[4-({[3-(methyloxy)phenyl]amino}carbonyl)piperazin-1-yl]pyridin-3-yl}oxy)methyl]pyridin-2-yl}carbamate] was run?
A: 6.00 to 7.30
